Values joined by “and” are separate entries in the source; they are usually repeats but may differ in a detail not shown here. Equal entries are not always repeated. Inconclusive results and toxic doses are left out. How the source made its calls: active means survival T/C of 150% or more; inactive means T/C below 125% in these data.
Test system: P388 leukemia ip, CD2F1 mice, survival T/C
Experiment: NCI In Vivo Anticancer Drug Screen. Data for tumor model P388 Leukemia (intraperitoneal) in CD2F1 (CDF1) mice
Conditions: endpoint: median survival time, higher = longer survival
How it was run: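 Mice carrying the transplanted tumor received test compound or vehicle. Survival was recorded in each group, and the value is the treated-group measurement divided by that of the vehicle-treated control group.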

[1] = dose: 50.0 mg/kg/injection, schedule: Q01DX009 (ip), vehicle: Klucel (hydroxypropylcellulose) (HPC)
[2] = dose: 100.0 mg/kg/injection, schedule: Q01DX009 (ip), vehicle: Klucel (hydroxypropylcellulose) (HPC)
[3] = dose: 60.0 mg/kg/injection, schedule: Q01DX005 (ip), vehicle: saline with Tween-80
[4] = dose: 120.0 mg/kg/injection, schedule: Q01DX005 (ip), vehicle: saline with Tween-80
[5] = dose: 240.0 mg/kg/injection, schedule: Q01DX005 (ip), vehicle: saline with Tween-80
[6] = dose: 200.0 mg/kg/injection, schedule: Q01DX009 (ip), vehicle: Klucel (hydroxypropylcellulose) (HPC)
[7] = dose: 100.0 mg/kg/injection, schedule: Q01DX005 (ip), vehicle: saline with Tween-80
[8] = dose: 200.0 mg/kg/injection, schedule: Q01DX005 (ip), vehicle: saline with Tween-80
[9] = dose: 50.0 mg/kg/injection, schedule: Q01DX005 (ip), vehicle: Klucel (hydroxypropylcellulose) (HPC)
[10] = dose: 100.0 mg/kg/injection, schedule: Q01DX005 (ip), vehicle: Klucel (hydroxypropylcellulose) (HPC)
[11] = dose: 200.0 mg/kg/injection, schedule: Q01DX005 (ip), vehicle: Klucel (hydroxypropylcellulose) (HPC)

Measured: T/C

O=c1c2ccccc2oc2cccc(NCCCN3CCN(CCCNc4cccc5oc6ccccc6c(=O)c45)CC3)c12
inactive: dose: 7.0 mg/kg/injection, schedule: Q01DX005 (ip), vehicle: saline with Tween-80 90 % of control

Cc1cc(=O)n2c(nc3cc(C)c(C)cc32)s1
inactive: [1] 103 % of control | [2] 100 % of control

COc1cccc2c1C(=O)c1c(O)c3c(c(O)c1C2=O)C[C@@](O)(C(C)=O)C[C@@H]3OC1CC(N)C(C(C)O)O1 (stereo not given in full)
inactive: dose: 3.12 mg/kg/injection, schedule: Q04DX003 (ip), vehicle: distilled water + Tween-80 117 % of control and 101 % of control | dose: 6.25 mg/kg/injection, schedule: Q04DX003 (ip), vehicle: distilled water + Tween-80 112 % of control and 92 % of control | dose: 12.5 mg/kg/injection, schedule: Q04DX003 (ip), vehicle: distilled water + Tween-80 114 % of control and 104 % of control | dose: 25.0 mg/kg/injection, schedule: Q04DX003 (ip), vehicle: distilled water + Tween-80 117 % of control and 111 % of control | dose: 50.0 mg/kg/injection, schedule: Q04DX003 (ip), vehicle: distilled water + Tween-80 117 % of control | dose: 100.0 mg/kg/injection, schedule: Q04DX003 (ip), vehicle: distilled water + Tween-80 119 % of control

CC1(C)OC2OC3COP(=O)(c4ccccc4)C3(CC#N)C2O1 (stereo not given)
inactive: [3] 94 % of control | [4] 99 % of control | [5] 98 % of control

CCCCCCCCCCCCCCCCONc1ccnc(=O)[nH]1
inactive: dose: 37.5 mg/kg/injection, schedule: Q01DX001 (ip), vehicle: Klucel (hydroxypropylcellulose) (HPC) 91 % of control | dose: 75.0 mg/kg/injection, schedule: Q01DX001 (ip), vehicle: Klucel (hydroxypropylcellulose) (HPC) 91 % of control

CN(C)C(=O)N1CCc2ccc([N+](=O)[O-])cc21
inactive: [1] 104 % of control | [2] 100 % of control | [6] 98 % of control

O=c1[nH]c(=O)n(C2OC(CO)C(O)C2O)cc1O (stereo not given)
inactive: dose: 60.0 mg/kg/injection, schedule: Q01DX005 (ip), vehicle: saline 102 % of control | dose: 120.0 mg/kg/injection, schedule: Q01DX005 (ip), vehicle: saline 101 % of control | dose: 240.0 mg/kg/injection, schedule: Q01DX005 (ip), vehicle: saline 103 % of control

COC1/C=C/O[C@@]2(C)Oc3c(C)c(O)c4c(O)c(cc(O)c4c3C2=O)NC(=O)/C(C)=C\C=C\[C@H](C)C(O)[C@@H](C)[C@@H](O)[C@@H](C)[C@H](OC(C)=O)[C@@H]1C (stereo not given in full)
inactive: dose: 6.25 mg/kg/injection, schedule: Q03HX024 (ip), vehicle: saline 100 % of control | dose: 12.5 mg/kg/injection, schedule: Q03HX024 (ip), vehicle: saline 110 % of control | dose: 25.0 mg/kg/injection, schedule: Q03HX024 (ip), vehicle: saline 100 % of control | dose: 50.0 mg/kg/injection, schedule: Q03HX024 (ip), vehicle: saline 100 % of control | dose: 100.0 mg/kg/injection, schedule: Q01DX009 (ip), vehicle: saline with Tween-80 90 % of control | dose: 100.0 mg/kg/injection, schedule: Q03HX024 (ip), vehicle: saline 100 % of control | dose: 100.0 mg/kg/injection, schedule: Q04DX003 (ip), vehicle: saline sonified 100 % of control | dose: 200.0 mg/kg/injection, schedule: Q01DX009 (ip), vehicle: saline with Tween-80 109 % of control | dose: 200.0 mg/kg/injection, schedule: Q04DX003 (ip), vehicle: saline sonified 100 % of control | dose: 400.0 mg/kg/injection, schedule: Q01DX009 (ip), vehicle: saline with Tween-80 118 % of control | dose: 400.0 mg/kg/injection, schedule: Q04DX003 (ip), vehicle: saline sonified 109 % of control

O=C(O)C1CC(Cl)C(O)C(Cl)C1 (stereo not given)
inactive: dose: 50.0 mg/kg/injection, schedule: Q01DX005 (ip), vehicle: saline with Tween-80 100 % of control | [7] 97 % of control | [8] 100 % of control

CN(C=O)C(C(=O)Nc1cccc2c(OC(=O)C(N(C)C=O)(N(C)C=O)N(C)C=O)c(N=Nc3ccc(S(=O)(=O)Nc4nccs4)cc3)cc(N=Nc3ccc(S(=O)(=O)Nc4nccs4)cc3)c12)(N(C)C=O)N(C)C=O (tested in a mixture with another compound)
inactive: [7] 114 % of control | [8] 115 % of control | dose: 500.0 mg/kg/injection, schedule: Q01DX001 (ip), vehicle: saline with Tween-80 109 % of control | dose: 1000.0 mg/kg/injection, schedule: Q01DX001 (ip), vehicle: saline with Tween-80 105 % of control | dose: 2000.0 mg/kg/injection, schedule: Q01DX001 (ip), vehicle: saline with Tween-80 113 % of control

O=C(O)CC(=O)NC1c2ccccc2Oc2ccccc21
inactive: [9] 94 % of control | [10] 97 % of control | [11] 99 % of control

O=C(Cc1nc2ccccc2[nH]c1=O)N/N=C/c1ccc2c(c1)CCC2
inactive: [3] 92 % of control and 95 % of control | [4] 100 % of control | [5] 89 % of control

Cc1cc(NC(=S)SCc2ccc(Cl)cc2)ccc1Br
inactive: dose: 12.5 mg/kg/injection, schedule: Q01DX009 (ip), vehicle: saline with Tween-80 124 % of control | dose: 25.0 mg/kg/injection, schedule: Q01DX009 (ip), vehicle: saline with Tween-80 119 % of control | [1] 114 % of control and 124 % of control | dose: 50.0 mg/kg/injection, schedule: Q01DX009 (ip), vehicle: saline with Tween-80 124 % of control | dose: 50.0 mg/kg/injection, schedule: Q01DX009 (ip), vehicle: suspension in saline 108 % of control | [2] 118 % of control and 120 % of control | dose: 100.0 mg/kg/injection, schedule: Q01DX009 (ip), vehicle: suspension in saline 101 % of control | [6] 123 % of control | dose: 200.0 mg/kg/injection, schedule: Q01DX009 (ip), vehicle: suspension in saline 113 % of control

O=C1CSC(c2ccc(Cl)cc2)N1N1C(=O)CSC1c1ccc(Cl)cc1 (stereo not given)
inactive: dose: 60.0 mg/kg/injection, schedule: Q01DX005 (ip), vehicle: Klucel (hydroxypropylcellulose) (HPC) 99 % of control | dose: 120.0 mg/kg/injection, schedule: Q01DX005 (ip), vehicle: Klucel (hydroxypropylcellulose) (HPC) 91 % of control | dose: 240.0 mg/kg/injection, schedule: Q01DX005 (ip), vehicle: Klucel (hydroxypropylcellulose) (HPC) 90 % of control

Nc1nc(-c2cc(C(c3ccccc3)c3ccccc3)nc(N)n2)cc(C(c2ccccc2)c2ccccc2)n1
inactive: [3] 105 % of control | [4] 109 % of control | [5] 101 % of control

Cn1cnc(=O)c2n[nH]nc21
inactive: [9] 100 % of control | [10] 100 % of control | [11] 87 % of control

CCOC(=O)c1cc2c(OC)c(OC)ccc2cc1N
inactive: dose: 12.5 mg/kg/injection, schedule: Q01DX009 (ip), vehicle: other 100 % of control | dose: 25.0 mg/kg/injection, schedule: Q01DX009 (ip), vehicle: other 103 % of control | dose: 50.0 mg/kg/injection, schedule: Q01DX009 (ip), vehicle: other 100 % of control | dose: 100.0 mg/kg/injection, schedule: Q01DX009 (ip), vehicle: other 115 % of control

COc1ccc2[nH]c(-c3ccccc3)cc2c1
inactive: dose: 100.0 mg/kg/injection, schedule: Q04DX003 (ip), vehicle: saline with Tween-80 105 % of control | dose: 200.0 mg/kg/injection, schedule: Q04DX003 (ip), vehicle: saline with Tween-80 110 % of control | dose: 400.0 mg/kg/injection, schedule: Q04DX003 (ip), vehicle: saline with Tween-80 100 % of control

Source: PubChem BioAssay AID330 (DTP/NCI, 2004)
